# Tests used:
# Experiment in all cases: radiometric protein kinase assay (33PanQinase Activity Assay)
# Type in all cases: biochemical
# Details in all cases: singlicate, read-out: residual activity
# EGF-R L861Q = biological target: T1, EGF-R L861Q (Homo sapiens, UniProt P00533, L861Q)
# T1 construct: GST or His (not specified per kinase); purchased ProQinase (panel service); host or cells: Sf9 insect cells or E. coli
# Procedure: (§1) In a first experiment, the kinase inhibition profile of the compound of formula (1) was evaluated at Proqinase (http://www.proqinase.com) by measuring residual activity values at a concentration of 10 µM of the test compound in singlicate in front of the following kinases: ABL2, EPHA3, CSF1-R, DDR2 wt, DDR2 N456 S, EGF-R d746-750, EGF-R d747-752/P753S, EGF-R G719C, EGF-R G719S, EGF-R L858R, EGF-R L861Q, EGF-R wt, EPHA1, EPHA2, EPHB1, ERBB4, LCK, MINK1, RAF1 Y340D/Y341D (untagged), RIPK2, STK17A. In a second experiment, the kinase inhibition profile of the compound of formula (1) was evaluated at Proqinase (http://www.proqinase.com) by measuring residual activity values at a concentration of 0.5 and 10 µM of the test compound in singlicate in front of a panel of 300 kinases using the following protocol:
# (§2) The compounds were dissolved to 1 x 10^-03 M stock solutions in 100% DMSO. Subsequently, 100 µl of each stock solution were transferred into wells A3-F12 of a microtiter plate ("master plate"). Wells A1-F2 were filled with 100 µl 100% DMSO as controls. 5 x 10 µl of the master plate were aliquoted into 5 copy plates, which were stored at -20° Celsius until use. For the testing of each group of up to 8 kinases, one copy plate was used.
# (§3) In the process, 90 µl H2O were added to each well of a copy plate. To minimize precipitation, the H2O was added to each well only a few minutes before the transfer of the compound solutions into the assay plates. The plate was shaken thoroughly, resulting in a "compound dilution plate" with a compound concentration of 1 x 10^-04 M/10 % DMSO. This plate was used for the transfer of 5 µl compound solution into the assay plates. The final volume of the assay was 50 µl. All compounds were tested at 1 x 10^-05 M in singlicate. The final DMSO concentration in the reaction cocktails was 1 % in all cases. The compound dilution plates were disposed at the end of each working day.
# (§4) A radiometric protein kinase assay (^33PanQinase® Activity Assay) was used for measuring the kinase activity of the corresponding protein kinases. All kinase assays were performed in 96-well FlashPlatesTM from Perkin Elmer (Boston, MA, USA) in a 50 µl reaction volume. The reaction cocktail was pipetted in 4 steps in the following order: • 10 µl of non-radioactive ATP solution (in H2O) • 25 µl of assay buffer/ [γ-33P]-ATP mixture • 5 µl of test sample in 10% DMSO • 10 µl of enzyme/substrate mixture
# (§5) The protein kinase reaction cocktails were incubated at 30°C for 60 minutes. The reaction was stopped with 50 µl of 2 % (v/v) H3PO4, plates were aspirated and washed two times with 200 µl 0.9 % (w/v) NaCl. All assays were performed with a BeckmanCoulter Biomek 2000/SL robotic system. Incorporation of ^33Pi (counting of "cpm") was determined with a microplate scintillation counter (Microbeta, Wallac).
# (§6) All protein kinase assays were performed with a BeckmanCoulter Core robotic system.
# (§7) All protein kinases provided by ProQinase were expressed in Sf9 insect cells or in E.coli as recombinant GST-fusion proteins or His-tagged proteins. All kinases were produced from human cDNAs and purified by either GSH-affinity chromatography or immobilized metal. Affinity tags were removed from a number of kinases during purification. The purity of the protein kinases was examined by SDS-PAGE/Coomassie staining, the identity was checked by mass spectroscopy.
# (§8) Kinases from external vendors (CAR = Carna Biosciences Inc.; INV = Life Technologies (Invitrogen Corporation); MIL = Merck-Millipore (Millipore Corporation)) were expressed, purified and quality-controlled by virtue of the vendors readings.
# (§9) For each kinase, the median value of the cpm of six wells of column 1 of each assay plate was defined as "low control" (n=6). This value reflects unspecific binding of radioactivity to the plate in the absence of a protein kinase but in the presence of the substrate. […]
# ERBB4 = biological target: T2, ERBB4 (Homo sapiens, UniProt Q15303)
# T2 construct: GST or His (not specified per kinase); purchased ProQinase (panel service); host or cells: Sf9 insect cells or E. coli
# Procedure: as §1, §2, §3, §4, §5, §6, §7, §8, §9
# EPHA3 = biological target: T3, EPHA3 (Homo sapiens, UniProt P29320)
# T3 construct: GST or His (not specified per kinase); purchased ProQinase (panel service); host or cells: Sf9 insect cells or E. coli
# Procedure: as §1, §2, §3, §4, §5, §6, §7, §8, §9
# EGF-R G719S = biological target: T4, EGF-R G719S (Homo sapiens, UniProt P00533, G719S)
# T4 construct: GST or His (not specified per kinase); purchased ProQinase (panel service); host or cells: Sf9 insect cells or E. coli
# Procedure: as §1, §2, §3, §4, §5, §6, §7, §8, §9
# EPHB1 = biological target: T5, EPHB1 (Homo sapiens, UniProt P54762)
# T5 construct: GST or His (not specified per kinase); purchased ProQinase (panel service); host or cells: Sf9 insect cells or E. coli
# Procedure: as §1, §2, §3, §4, §5, §6, §7, §8, §9
# EGF-R d746-750 = biological target: T6, EGF-R d746-750 (Homo sapiens, UniProt P00533, DEL746-750)
# T6 construct: GST or His (not specified per kinase); purchased ProQinase (panel service); host or cells: Sf9 insect cells or E. coli
# Procedure: as §1, §2, §3, §4, §5, §6, §7, §8, §9
# DDR2 N456S = biological target: T7, DDR2 N456S (Homo sapiens, UniProt Q16832, N456S)
# T7 construct: GST or His (not specified per kinase); purchased ProQinase (panel service); host or cells: Sf9 insect cells or E. coli
# Procedure: as §1, §2, §3, §4, §5, §6, §7, §8, §9
# LCK = biological target: T8, LCK (Homo sapiens, UniProt P06239)
# T8 construct: GST or His (not specified per kinase); purchased ProQinase (panel service); host or cells: Sf9 insect cells or E. coli
# Procedure: as §1, §2, §3, §4, §5, §6, §7, §8, §9
# DDR2 wt = biological target: T9, DDR2 wt (Homo sapiens, UniProt Q16832)
# T9 construct: GST or His (not specified per kinase); purchased ProQinase (panel service); host or cells: Sf9 insect cells or E. coli
# Procedure: as §1, §2, §3, §4, §5, §6, §7, §8, §9
# ABL2 = biological target: T10, ABL2 (Homo sapiens, UniProt P42684)
# T10 construct: GST or His (not specified per kinase); purchased ProQinase (panel service); host or cells: Sf9 insect cells or E. coli
# Procedure: as §1, §2, §3, §4, §5, §6, §7, §8, §9
# EGF-R d747-752/P753S = biological target: T11, EGF-R d747-752/P753S (Homo sapiens, UniProt P00533, DEL747-752/P753S)
# T11 construct: GST or His (not specified per kinase); purchased ProQinase (panel service); host or cells: Sf9 insect cells or E. coli
# Procedure: as §1, §2, §3, §4, §5, §6, §7, §8, §9
# EPHA1 = biological target: T12, EPHA1 (Homo sapiens, UniProt P21709)
# T12 construct: GST or His (not specified per kinase); purchased ProQinase (panel service); host or cells: Sf9 insect cells or E. coli
# Procedure: as §1, §2, §3, §4, §5, §6, §7, §8, §9
# EGF-R L858R = biological target: T13, EGF-R L858R (Homo sapiens, UniProt P00533, L858R)
# T13 construct: GST or His (not specified per kinase); purchased ProQinase (panel service); host or cells: Sf9 insect cells or E. coli
# Procedure: as §1, §2, §3, §4, §5, §6, §7, §8, §9
# EGF-R wt = biological target: T14, EGF-R wt (Homo sapiens, UniProt P00533)
# T14 construct: GST or His (not specified per kinase); purchased ProQinase (panel service); host or cells: Sf9 insect cells or E. coli
# Procedure: as §1, §2, §3, §4, §5, §6, §7, §8, §9
# T1 sequence (P00533 25-1210 L861Q): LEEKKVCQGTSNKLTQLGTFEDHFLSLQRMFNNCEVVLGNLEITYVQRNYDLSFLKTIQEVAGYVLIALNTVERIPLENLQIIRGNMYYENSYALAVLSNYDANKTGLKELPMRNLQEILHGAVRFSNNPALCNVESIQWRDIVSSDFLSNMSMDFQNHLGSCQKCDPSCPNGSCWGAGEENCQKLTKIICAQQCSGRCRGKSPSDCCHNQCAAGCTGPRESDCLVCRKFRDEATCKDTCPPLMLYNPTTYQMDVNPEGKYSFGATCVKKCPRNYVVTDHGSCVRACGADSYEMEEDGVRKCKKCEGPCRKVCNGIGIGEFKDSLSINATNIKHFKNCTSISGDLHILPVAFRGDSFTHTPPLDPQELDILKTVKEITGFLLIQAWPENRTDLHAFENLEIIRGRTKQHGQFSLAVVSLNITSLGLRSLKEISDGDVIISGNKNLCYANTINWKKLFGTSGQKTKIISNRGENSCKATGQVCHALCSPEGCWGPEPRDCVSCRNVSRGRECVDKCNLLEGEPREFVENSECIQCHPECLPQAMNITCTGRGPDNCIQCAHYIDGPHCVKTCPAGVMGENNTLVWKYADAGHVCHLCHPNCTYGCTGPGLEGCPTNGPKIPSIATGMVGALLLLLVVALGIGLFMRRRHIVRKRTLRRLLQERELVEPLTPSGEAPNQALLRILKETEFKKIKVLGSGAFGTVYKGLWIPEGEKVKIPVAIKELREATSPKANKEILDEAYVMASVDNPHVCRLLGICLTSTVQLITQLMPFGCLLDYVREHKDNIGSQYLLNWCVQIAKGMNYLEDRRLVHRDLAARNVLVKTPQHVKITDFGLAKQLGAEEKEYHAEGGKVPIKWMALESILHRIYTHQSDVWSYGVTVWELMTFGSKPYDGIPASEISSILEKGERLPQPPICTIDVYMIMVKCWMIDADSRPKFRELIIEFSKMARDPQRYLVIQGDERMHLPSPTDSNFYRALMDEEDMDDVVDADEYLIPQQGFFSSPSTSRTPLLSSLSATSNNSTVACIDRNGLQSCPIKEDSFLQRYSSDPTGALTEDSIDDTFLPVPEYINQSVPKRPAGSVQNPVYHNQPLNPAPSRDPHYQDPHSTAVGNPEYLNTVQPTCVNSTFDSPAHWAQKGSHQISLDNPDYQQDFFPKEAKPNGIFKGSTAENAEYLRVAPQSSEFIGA
# T9 sequence (Q16832 22-855): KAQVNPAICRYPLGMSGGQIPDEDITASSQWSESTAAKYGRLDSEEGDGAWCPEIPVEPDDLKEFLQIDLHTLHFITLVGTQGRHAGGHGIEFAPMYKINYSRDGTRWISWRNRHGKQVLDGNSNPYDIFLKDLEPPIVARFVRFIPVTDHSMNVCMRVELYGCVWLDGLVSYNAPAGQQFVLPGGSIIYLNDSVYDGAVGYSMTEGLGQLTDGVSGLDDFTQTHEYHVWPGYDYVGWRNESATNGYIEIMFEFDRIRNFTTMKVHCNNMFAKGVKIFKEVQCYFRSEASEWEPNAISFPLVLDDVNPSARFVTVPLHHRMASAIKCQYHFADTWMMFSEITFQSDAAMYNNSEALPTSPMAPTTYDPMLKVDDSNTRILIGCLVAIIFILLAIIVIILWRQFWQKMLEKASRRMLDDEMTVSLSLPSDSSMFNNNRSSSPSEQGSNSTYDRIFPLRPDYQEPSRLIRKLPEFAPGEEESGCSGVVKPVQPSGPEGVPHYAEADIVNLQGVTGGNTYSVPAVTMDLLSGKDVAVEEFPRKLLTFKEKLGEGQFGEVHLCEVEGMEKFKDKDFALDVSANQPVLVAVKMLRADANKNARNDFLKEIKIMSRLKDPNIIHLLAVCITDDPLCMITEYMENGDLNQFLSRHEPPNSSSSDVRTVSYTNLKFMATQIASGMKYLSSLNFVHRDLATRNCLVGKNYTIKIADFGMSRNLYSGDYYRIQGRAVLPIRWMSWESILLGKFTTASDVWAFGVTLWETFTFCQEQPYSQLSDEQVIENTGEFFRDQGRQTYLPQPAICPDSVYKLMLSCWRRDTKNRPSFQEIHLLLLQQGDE
# T2 sequence (Q15303 26-1308): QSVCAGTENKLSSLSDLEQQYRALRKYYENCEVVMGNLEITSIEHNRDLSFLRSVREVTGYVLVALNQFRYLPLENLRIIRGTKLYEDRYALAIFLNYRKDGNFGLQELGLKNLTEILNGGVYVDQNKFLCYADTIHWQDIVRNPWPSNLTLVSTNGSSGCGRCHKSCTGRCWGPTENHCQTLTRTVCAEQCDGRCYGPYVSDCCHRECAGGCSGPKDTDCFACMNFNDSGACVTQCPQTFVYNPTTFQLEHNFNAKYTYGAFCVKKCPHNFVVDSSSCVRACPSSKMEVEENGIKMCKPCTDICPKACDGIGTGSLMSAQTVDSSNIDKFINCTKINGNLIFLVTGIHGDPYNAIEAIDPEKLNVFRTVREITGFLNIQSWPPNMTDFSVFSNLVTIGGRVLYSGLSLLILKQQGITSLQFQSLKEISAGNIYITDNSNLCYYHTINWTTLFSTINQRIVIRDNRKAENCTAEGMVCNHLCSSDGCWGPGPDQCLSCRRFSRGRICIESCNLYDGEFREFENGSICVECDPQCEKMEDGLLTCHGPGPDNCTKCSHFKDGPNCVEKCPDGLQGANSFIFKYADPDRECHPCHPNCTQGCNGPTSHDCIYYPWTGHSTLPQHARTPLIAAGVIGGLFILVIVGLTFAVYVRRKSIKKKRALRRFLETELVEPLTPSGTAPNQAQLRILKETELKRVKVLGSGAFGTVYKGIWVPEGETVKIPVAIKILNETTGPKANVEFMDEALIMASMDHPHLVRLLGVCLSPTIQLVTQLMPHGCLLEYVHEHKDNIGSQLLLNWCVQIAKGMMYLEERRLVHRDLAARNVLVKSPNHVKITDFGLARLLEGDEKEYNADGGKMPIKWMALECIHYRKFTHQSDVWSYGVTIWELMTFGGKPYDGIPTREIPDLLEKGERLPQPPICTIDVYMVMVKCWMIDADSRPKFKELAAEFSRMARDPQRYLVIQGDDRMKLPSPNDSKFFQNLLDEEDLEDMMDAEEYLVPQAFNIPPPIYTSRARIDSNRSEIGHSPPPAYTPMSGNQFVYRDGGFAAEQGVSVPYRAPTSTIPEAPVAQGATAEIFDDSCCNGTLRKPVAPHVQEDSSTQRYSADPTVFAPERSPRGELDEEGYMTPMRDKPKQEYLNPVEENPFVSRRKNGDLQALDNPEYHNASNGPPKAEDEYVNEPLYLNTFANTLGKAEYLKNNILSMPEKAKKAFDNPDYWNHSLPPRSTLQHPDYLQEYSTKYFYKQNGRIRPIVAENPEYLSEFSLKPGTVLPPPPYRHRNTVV
# T12 sequence (P21709 26-976): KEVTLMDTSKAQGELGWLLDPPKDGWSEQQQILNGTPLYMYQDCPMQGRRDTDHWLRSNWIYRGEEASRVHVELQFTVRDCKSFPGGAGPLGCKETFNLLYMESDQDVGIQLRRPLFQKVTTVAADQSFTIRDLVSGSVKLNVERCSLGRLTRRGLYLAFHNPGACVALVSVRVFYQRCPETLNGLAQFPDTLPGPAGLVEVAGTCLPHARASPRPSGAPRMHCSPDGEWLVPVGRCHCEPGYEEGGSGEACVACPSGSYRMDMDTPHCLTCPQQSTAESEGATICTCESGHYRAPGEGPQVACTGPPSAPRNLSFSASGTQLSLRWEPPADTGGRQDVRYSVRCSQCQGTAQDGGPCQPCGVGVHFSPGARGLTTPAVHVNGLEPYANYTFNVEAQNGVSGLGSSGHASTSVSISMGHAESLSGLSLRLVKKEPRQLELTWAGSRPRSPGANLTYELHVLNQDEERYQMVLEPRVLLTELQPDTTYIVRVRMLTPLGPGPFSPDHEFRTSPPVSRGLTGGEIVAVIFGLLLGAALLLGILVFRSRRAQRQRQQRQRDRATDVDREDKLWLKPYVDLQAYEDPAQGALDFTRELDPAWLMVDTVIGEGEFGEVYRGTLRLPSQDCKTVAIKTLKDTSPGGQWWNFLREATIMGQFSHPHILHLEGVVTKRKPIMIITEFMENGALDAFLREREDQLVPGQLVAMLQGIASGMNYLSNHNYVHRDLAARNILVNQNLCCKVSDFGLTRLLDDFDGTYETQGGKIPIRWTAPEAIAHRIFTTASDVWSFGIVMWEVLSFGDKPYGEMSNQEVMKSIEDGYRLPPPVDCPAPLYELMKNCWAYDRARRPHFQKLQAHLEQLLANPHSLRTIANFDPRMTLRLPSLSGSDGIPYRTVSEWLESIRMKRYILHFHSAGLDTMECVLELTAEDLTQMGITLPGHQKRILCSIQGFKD
# T11 sequence (P00533 with tags, fused parts or gaps DEL747-752/P753S limits assumed): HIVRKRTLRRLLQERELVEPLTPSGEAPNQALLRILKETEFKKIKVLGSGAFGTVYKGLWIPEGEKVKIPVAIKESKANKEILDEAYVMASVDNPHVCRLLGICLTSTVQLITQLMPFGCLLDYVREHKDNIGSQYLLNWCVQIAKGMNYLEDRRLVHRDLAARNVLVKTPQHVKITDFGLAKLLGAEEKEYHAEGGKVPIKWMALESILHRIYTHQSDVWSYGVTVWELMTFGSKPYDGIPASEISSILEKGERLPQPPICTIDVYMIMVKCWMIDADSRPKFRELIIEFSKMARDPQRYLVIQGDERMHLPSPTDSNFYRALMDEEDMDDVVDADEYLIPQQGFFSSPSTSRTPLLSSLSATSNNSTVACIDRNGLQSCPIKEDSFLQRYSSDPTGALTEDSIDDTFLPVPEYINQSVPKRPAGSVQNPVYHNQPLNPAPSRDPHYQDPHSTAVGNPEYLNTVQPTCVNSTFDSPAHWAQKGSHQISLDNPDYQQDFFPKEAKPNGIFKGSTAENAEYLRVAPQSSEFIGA
# T7 sequence (Q16832 22-855 N456S): as the sequence (Q16832 22-855) above, with N435S counted along it
smiles,measurement,setting,value
"Cn1c(=O)c(-c2c(Cl)cccc2Cl)cc2c(N)nc(Nc3ccccc3)nc21 [Compound (1), 4-amino-6-(2,6-dichlorophenyl)-8-methyl-2-(phenylamino)-pyrido[2,3-d]pyrimidin-7(8H)-one]",remaining activity at 0.5 µM,EGF-R L861Q; 0.5 µM test compound,36%
same,remaining activity at 10 µM,EGF-R L861Q; 10 µM test compound,8%
same,remaining activity at 0.5 µM,ERBB4; 0.5 µM test compound,52%
same,remaining activity at 10 µM,ERBB4; 10 µM test compound,7%
same,remaining activity at 0.5 µM,EPHA3; 0.5 µM test compound,9%
same,remaining activity at 10 µM,EPHA3; 10 µM test compound,36%
same,remaining activity at 0.5 µM,EGF-R G719S; 0.5 µM test compound,39%
same,remaining activity at 10 µM,EGF-R G719S; 10 µM test compound,3%
same,remaining activity at 0.5 µM,EPHB1; 0.5 µM test compound,57%
same,remaining activity at 10 µM,EPHB1; 10 µM test compound,5%
same,remaining activity at 0.5 µM,EGF-R d746-750; 0.5 µM test compound,28%
same,remaining activity at 10 µM,EGF-R d746-750; 10 µM test compound,10%
same,remaining activity at 0.5 µM,DDR2 N456S; 0.5 µM test compound,10%
same,remaining activity at 10 µM,DDR2 N456S; 10 µM test compound,6%
same,remaining activity at 0.5 µM,LCK; 0.5 µM test compound,50%
same,remaining activity at 10 µM,LCK; 10 µM test compound,5%
same,remaining activity at 0.5 µM,DDR2 wt; 0.5 µM test compound,10%
same,remaining activity at 10 µM,DDR2 wt; 10 µM test compound,4%
same,remaining activity at 0.5 µM,ABL2; 0.5 µM test compound,44%
same,remaining activity at 10 µM,ABL2; 10 µM test compound,13%
same,remaining activity at 0.5 µM,EGF-R d747-752/P753S; 0.5 µM test compound,47%
same,remaining activity at 10 µM,EGF-R d747-752/P753S; 10 µM test compound,15%
same,remaining activity at 0.5 µM,EPHA1; 0.5 µM test compound,54%
same,remaining activity at 10 µM,EPHA1; 10 µM test compound,13%
same,remaining activity at 0.5 µM,EGF-R L858R; 0.5 µM test compound,49%
same,remaining activity at 10 µM,EGF-R L858R; 10 µM test compound,10%
same,remaining activity at 0.5 µM,EGF-R wt; 0.5 µM test compound,47%
same,remaining activity at 10 µM,EGF-R wt; 10 µM test compound,16%
